# Laboratory results: patent US20200253877A1, “GEMCABENE, PHARMACEUTICALLY ACCEPTABLE SALTS THEREOF, COMPOSITIONS THEREOF AND METHODS OF USE THEREFOR” (NEUROBO PHARMACEUTICALS, INC., priority 2018, published 2020)
# Key:
# [1] = tested on: hepatic mRNA expression in STAM™ mice; assay: Murine STAM model of NASH-HCC: hepatic gene expression by quantitative RT-PCR; format: in vivo, mouse; settings: 300 mg/kg, n = 8, STAM mice, normalized to non-treated group
# Procedure: A study was performed to evaluate the efficacy of gemcabene calcium salt hydrate Crystal Form 1 having a PSD90 of 52 μm as measured by laser light diffraction, in treating non-alcoholic steatosis hepatitis (NASH) in the murine STAM™ model of NASH-HCC.
# Briefly, two-day old neonatal C57BL/6 male mice were administered low-dose streptozotocin (STZ), and were subsequently fed a HFC diet from 4 weeks of age. In this model, the mice typically develop liver steatosis and diabetes, reaching steatohepatitis within 3 weeks, followed by cirrhosis within 8 weeks, and carcinoma within 16 weeks. In the current study, mice were administered daily oral gemcabene calcium salt hydrate Crystal Form 1 starting at week 6 of age and were sacrificed at week 9. […] These STAM™ groups were orally administered from week 6 one of the following: water-vehicle, gemcabene calcium salt hydrate Crystal Form 1 at 30, 100 and 300 mg/kg daily, or telmisartan ([…]®) 10 mg/kg daily. […] All groups were sacrificed at week 9. Vehicle, gemcabene calcium salt hydrate Crystal Form 1, or telmisartan were administered by oral gavage once daily.
# Various gene expression markers of liver metabolism were evaluated by Real-Time PCR (RT-PCR) in all mouse groups. Total RNA was extracted from liver samples using RNAiso (Takara Bio, Japan) according to the manufacturer's instructions. […] of RNA was reverse-transcribed using a reaction mixture containing 4.4 mM MgCl2 (F. Hoffmann-La Roche, Switzerland), 40 U RNase inhibitor (Toyobo, Japan), 0.5 mM dNTP (Promega, USA), 6.28 μM random hexamer (Promega), 5×first strand buffer (Promega), 10 mM dithiothreitol (Invitrogen, USA) and 200 U MMLV-RT (Invitrogen) in a final volume of 20 μL. The reaction was carried out for 1 hour at 37° C., followed by 5 minutes at 99° C. Real-time PCR was performed using real-time PCR DICE and SYBR premix Taq (Takara Bio). To calculate the relative mRNA expression level, the expression of each gene was normalized to that of reference gene 36B4 (gene symbol: RplpO). Information of PCR-primer sets is described in Tables 37A-37C. Statistical analyses were performed using the Bonferroni Multiple Comparison Test on GraphPad Prism 6 (GraphPad Software Inc., USA). P values <0.05 were considered statistically significant. Results are expressed as mean±SD.
# In order to calculate the relative mRNA expression level, the expression of each gene was normalized to that of the reference gene 36B4 (gene symbol: RplpO). The gene expression levels were measured by quantitative RT-PCR. Results were normalized with values for the vehicle-treated normal group. […] Gemcabene calcium salt hydrate Crystal Form 1 (PSD90=52 μm) modulated the mRNA expression of many hepatic genes that play a significant role in the liver homeostasis and injury.
# [2] = tested on: STAM™ mice, a murine model of NASH-HCC; assay: Murine STAM model of NASH-HCC: whole blood, plasma and liver biochemistry; settings: mean ± SD, n = 8; for Fasting blood glucose / Plasma insulin: Day 18 after 8 hours of fasting; for Liver free fatty acid / Liver hydroxyproline / Liver triglyceride / Non-fasting blood glucose / Plasma ApoC-III / Plasma CRP / Plasma adiponectin / Plasma alanine aminotransferase / Plasma alkaline phosphatase / Plasma aspartate aminotransferase / Plasma blood urea nitrogen / Plasma creatinine / Plasma gamma-glutamyl transferase / Plasma ketone body / Plasma leptin / Plasma total bilirubin / Plasma total cholesterol / Plasma triglyceride: at termination (Day 21)
smiles,measurement,setting,value
"CC(C)(CCCCOCCCCC(C)(C)C(=O)O)C(=O)O [gemcabene, 6-(5-carboxy-5-methyl-hexyloxy)-2,2-dimethyl-hexanoic acid]",MCP-1 gene expression (mean ± SD),[1],1.6 ± 0.7
same,MIP-1β gene expression (mean ± SD),[1],2.8 ± 1.4
same,MMP-2 gene expression (mean ± SD),[1],0.9 ± 0.2
same,NF-κB gene expression (mean ± SD),[1],0.8 ± 0.1
same,PNPLA3 gene expression (mean ± SD),[1],0.2 ± 0.2
same,SCD1 gene expression (mean ± SD),[1],0.4 ± 0.2
same,SREBP-1 gene expression (mean ± SD),[1],0.7 ± 0.1
same,Sulf-2 gene expression (mean ± SD),[1],3.3 ± 0.9
same,TIMP-1 gene expression (mean ± SD),[1],4.4 ± 2.1
same,TNF-α gene expression (mean ± SD),[1],1.9 ± 0.7
same,α-SMA gene expression (mean ± SD),[1],2.5 ± 0.7
same,Fasting blood glucose,[2]; 30 mg/kg PO QD,437 ± 42 mg/dL
same,Plasma insulin,[2]; 30 mg/kg PO QD,0.13 ± 0.04 ng/mL
same,Liver free fatty acid,[2]; 30 mg/kg PO QD,35.1 ± 8.4 pEq/g liver
same,Liver hydroxyproline,[2]; 30 mg/kg PO QD,0.66 ± 0.12 μg/mg total protein
same,Liver triglyceride,[2]; 30 mg/kg PO QD,49.2 ± 8.6 mg/g liver
same,Non-fasting blood glucose,[2]; 30 mg/kg PO QD,607 ± 48 mg/dL
same,Plasma ApoC-III,[2]; 30 mg/kg PO QD,6.6 ± 0.8 gg/mL
same,Plasma CRP,[2]; 30 mg/kg PO QD,2.5 ± 0.3 gg/mL
same,Plasma adiponectin,[2]; 30 mg/kg PO QD,4.1 ± 0.9 gg/mL
same,Plasma alanine aminotransferase,[2]; 30 mg/kg PO QD,41 ± 15 U/L
same,Plasma alkaline phosphatase,[2]; 30 mg/kg PO QD,382 ± 78 U/L
same,Plasma aspartate aminotransferase,[2]; 30 mg/kg PO QD,100 ± 44 U/L
same,Plasma blood urea nitrogen,[2]; 30 mg/kg PO QD,25.0 ± 3.9 mg/dL
same,Plasma creatinine,[2]; 30 mg/kg PO QD,0.1 ± 0.0 mg/dL
same,Plasma gamma-glutamyl transferase,[2]; 30 mg/kg PO QD,1 ± 0 U/L
same,Plasma ketone body,[2]; 30 mg/kg PO QD,9.43 ± 2.35 m M
same,Plasma leptin,[2]; 30 mg/kg PO QD,3.1 ± 1.2 ng/mL
same,Plasma total bilirubin,[2]; 30 mg/kg PO QD,0.2 ± 0.1 mg/dL
same,Plasma total cholesterol,[2]; 30 mg/kg PO QD,194 ± 17 mg/dL
same,Plasma triglyceride,[2]; 30 mg/kg PO QD,319 ± 198 mg/dL
same,Fasting blood glucose,[2]; 100 mg/kg PO QD,441 ± 46 mg/dL
same,Plasma insulin,[2]; 100 mg/kg PO QD,0.17 ± 0.06 ng/mL
same,Liver free fatty acid,[2]; 100 mg/kg PO QD,38.4 ± 8.5 pEq/g liver
same,Liver hydroxyproline,[2]; 100 mg/kg PO QD,0.74 ± 0.38 μg/mg total protein
same,Liver triglyceride,[2]; 100 mg/kg PO QD,58.4 ± 14.5 mg/g liver
same,Non-fasting blood glucose,[2]; 100 mg/kg PO QD,653 ± 53 mg/dL
same,Plasma ApoC-III,[2]; 100 mg/kg PO QD,6.0 ± 2.5 gg/mL
same,Plasma CRP,[2]; 100 mg/kg PO QD,1.9 ± 0.3 gg/mL
same,Plasma adiponectin,[2]; 100 mg/kg PO QD,4.1 ± 0.5 gg/mL
same,Plasma alanine aminotransferase,[2]; 100 mg/kg PO QD,27 ± 7 U/L
same,Plasma alkaline phosphatase,[2]; 100 mg/kg PO QD,642 ± 167 U/L
same,Plasma aspartate aminotransferase,[2]; 100 mg/kg PO QD,88 ± 32 U/L
same,Plasma blood urea nitrogen,[2]; 100 mg/kg PO QD,29.8 ± 4.3 mg/dL
same,Plasma creatinine,[2]; 100 mg/kg PO QD,0.1 ± 0.1 mg/dL
same,Plasma gamma-glutamyl transferase,[2]; 100 mg/kg PO QD,1 ± 0 U/L
same,Plasma ketone body,[2]; 100 mg/kg PO QD,5.75 ± 3.24 m M
same,Plasma leptin,[2]; 100 mg/kg PO QD,4.3 ± 1.2 ng/mL
same,Plasma total bilirubin,[2]; 100 mg/kg PO QD,0.3 ± 0.2 mg/dL
same,Plasma total cholesterol,[2]; 100 mg/kg PO QD,228 ± 37 mg/dL
same,Plasma triglyceride,[2]; 100 mg/kg PO QD,191 ± 57 mg/dL
same,Fasting blood glucose,[2]; 300 mg/kg PO QD,407 ± 15 mg/dL
same,Plasma insulin,[2]; 300 mg/kg PO QD,0.13 ± 0.04 ng/mL
same,Liver free fatty acid,[2]; 300 mg/kg PO QD,46.0 ± 5.5 pEq/g liver
same,Liver hydroxyproline,[2]; 300 mg/kg PO QD,0.70 ± 0.10 μg/mg total protein
same,Liver triglyceride,[2]; 300 mg/kg PO QD,56.0 ± 13.9 mg/g liver
same,Non-fasting blood glucose,[2]; 300 mg/kg PO QD,638 ± 63 mg/dL
same,Plasma ApoC-III,[2]; 300 mg/kg PO QD,6.2 ± 0.7 gg/mL
same,Plasma CRP,[2]; 300 mg/kg PO QD,1.9 ± 0.4 gg/mL
same,Plasma adiponectin,[2]; 300 mg/kg PO QD,4.9 ± 0.5 gg/mL
same,Plasma alanine aminotransferase,[2]; 300 mg/kg PO QD,32 ± 14 U/L
same,Plasma alkaline phosphatase,[2]; 300 mg/kg PO QD,794 ± 57 U/L
same,Plasma aspartate aminotransferase,[2]; 300 mg/kg PO QD,147 ± 122 U/L
same,Plasma blood urea nitrogen,[2]; 300 mg/kg PO QD,30.1 ± 5.8 mg/dL
same,Plasma creatinine,[2]; 300 mg/kg PO QD,0.2 ± 0.1 mg/dL
same,Plasma gamma-glutamyl transferase,[2]; 300 mg/kg PO QD,1 ± 0 U/L
same,Plasma ketone body,[2]; 300 mg/kg PO QD,5.68 ± 3.08 m M
same,Plasma leptin,[2]; 300 mg/kg PO QD,3.2 ± 1.1 ng/mL
same,Plasma total bilirubin,[2]; 300 mg/kg PO QD,0.3 ± 0.1 mg/dL
same,Plasma total cholesterol,[2]; 300 mg/kg PO QD,234 ± 45 mg/dL
same,Plasma triglyceride,[2]; 300 mg/kg PO QD,149 ± 32 mg/dL
